Results: ChEMBL document CHEMBL5214948, “Boronic Acid: A Novel Pharmacophore Targeting Src Homology 2 (SH2) Domain of STAT3” (J Med Chem, 2022)
pIC50, pKd: −log10 of the molar value. Activity calls are given as the source filed them. The rule behind the calls is not given here.

Columns and labels:
MGC-803 [1] = experiment: Inhibition of colony formation in human MGC-803 cells at 1 uM incubated for 10 to 15 days by crystal violet staining based assay; type: functional, cell-based; conditions: time 10-15 day
AGS [2] = experiment: Antiproliferative activity against human AGS cells assessed as reduction in cell viability incubated for 72 hrs by CCK-8 assay; type: functional, cell-based
MGC-803 [3] = experiment: Antiproliferative activity against human MGC-803 cells assessed as reduction in cell viability measured after 72 hrs by CCK-8 assay; type: functional, cell-based; conditions: MGC-803, 72 h
[4] = Half life in ICR mouse at 5 mg/kg, iv measured upto 24 hrs by LC-MS/MS analysis; type: ADME, organism-based; conditions: in vivo
[5] = Cmax in ICR mouse at 5 mg/kg, iv measured upto 24 hrs by LC-MS/MS analysis; type: ADME, organism-based; set-up: time < 24 hrs, dose 5 mg/kg, route iv; conditions: in vivo
in vivo [6] = type: ADME, organism-based; conditions: ICR, mouse, iv, 5 mg/kg
in vivo [7] = type: ADME, organism-based; conditions: ICR, mouse, iv, 5 mg/kg; remark: listed apart in the source
[8] = Clearance in ICR mouse at 5 mg/kg, iv measured upto 24 hrs by LC-MS/MS analysis; type: ADME, organism-based; conditions: in vivo
[9] = Volume of distribution at steady state in ICR mouse at 5 mg/kg, iv measured upto 24 hrs by LC-MS/MS analysis; type: ADME, organism-based; conditions: in vivo, read-out: Vdss
[10] = target: T1, Signal transducer and activator of transcription 3 (Homo sapiens, UniProt P40763); experiment: Binding affinity to full length wild type STAT3-SH2 domain (unknown origin) assessed as association constant by SPR analysis
T1 sequence (P40763 whole entry, the tested form may be a part): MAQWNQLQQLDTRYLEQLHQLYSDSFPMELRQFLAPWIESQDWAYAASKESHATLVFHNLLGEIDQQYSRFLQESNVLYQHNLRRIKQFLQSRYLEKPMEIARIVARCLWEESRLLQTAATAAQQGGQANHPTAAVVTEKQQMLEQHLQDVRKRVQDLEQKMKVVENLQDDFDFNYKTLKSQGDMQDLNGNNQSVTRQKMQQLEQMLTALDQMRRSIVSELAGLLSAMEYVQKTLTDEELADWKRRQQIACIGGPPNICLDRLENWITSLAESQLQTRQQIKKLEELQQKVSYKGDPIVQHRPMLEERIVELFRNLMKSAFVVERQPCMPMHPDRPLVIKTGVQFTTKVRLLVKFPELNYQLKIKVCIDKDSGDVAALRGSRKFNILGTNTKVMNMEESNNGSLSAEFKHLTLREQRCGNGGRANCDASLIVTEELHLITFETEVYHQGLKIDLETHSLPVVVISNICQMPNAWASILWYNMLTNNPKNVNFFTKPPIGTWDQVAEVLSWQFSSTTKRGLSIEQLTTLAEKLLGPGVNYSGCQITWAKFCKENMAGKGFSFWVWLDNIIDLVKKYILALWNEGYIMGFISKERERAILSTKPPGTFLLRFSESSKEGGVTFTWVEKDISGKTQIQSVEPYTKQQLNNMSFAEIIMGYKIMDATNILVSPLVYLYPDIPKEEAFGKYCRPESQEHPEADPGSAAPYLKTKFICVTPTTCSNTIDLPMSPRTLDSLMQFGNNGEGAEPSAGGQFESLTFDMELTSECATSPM

[11] = target: T1, Signal transducer and activator of transcription 3; experiment: Binding affinity to full length wild type STAT3-SH2 domain (unknown origin) assessed as equilibrium dissociation constant by SPR analysis
[12] = target: T1, Signal transducer and activator of transcription 3; experiment: Binding affinity to full length wild type STAT3-SH2 domain (unknown origin) in human MGC-803 cells assessed as thermal stabilization of protein at 37 to 53 degreeC at 5 uM incubated for 3 hrs by cellular thermal shift assay; type: cell-based
[13] = target: T1, Signal transducer and activator of transcription 3; experiment: Inhibition of STAT3 phosphorylation at Tyr705 residue in human AGS cells incubated for 24 hrs by Western blot analysis; type: cell-based; conditions: dose 1-3 µM, DDE = dose-dependent effect
[14] = target: T1, Signal transducer and activator of transcription 3; experiment: Inhibition of STAT3 phosphorylation at Tyr705 residue in human MGC-803 cells incubated for 24 hrs by Western blot analysis; type: cell-based; conditions: dose 3-5 µM, DDE = dose-dependent effect
[15] = target: T1, Signal transducer and activator of transcription 3; experiment: Inhibition of IL-6 induced FLAG/HA-tagged STAT3 dimerization in human HEK293T cells pretreated for 24 hrs followed by IL-6 stimulation and measured after 1 hr by immunoprecipitation assay; type: cell-based; conditions: time 25.0 hrs, DDE = dose-dependent effect
[16] = target: T1, Signal transducer and activator of transcription 3; experiment: Inhibition of STAT3 transcriptional activity transfected in HEK293T cells at 3 to 5 uM incubated for 24 hrs by dual-ludferase reporter gene assay; type: cell-based; conditions: dose 3-5 µM
[17] = target: T1, Signal transducer and activator of transcription 3; experiment: Inhibition of STAT3 transcriptional activity in human AGS cells assessed as downregulation of C-myc protein expression at 1 to 3 uM incubated for 24 hrs by Western blot analysis; type: cell-based; conditions: dose 1-3 µM
[18] = target: T1, Signal transducer and activator of transcription 3; experiment: Inhibition of STAT3 transcriptional activity in human MGC-803 cells assessed as downregulation of C-myc protein expression at 3 to 5 uM incubated for 24 hrs by Western blot analysis; type: cell-based; conditions: dose 3-5 µM
[19] = target: T1, Signal transducer and activator of transcription 3; experiment: Inhibition of STAT3 transcriptional activity in human AGS cells assessed as downregulation of Bcl-xL protein expression at 1 to 3 uM incubated for 24 hrs by Western blot analysis; type: cell-based; conditions: dose 1-3 µM
[20] = target: T1, Signal transducer and activator of transcription 3; experiment: Inhibition of STAT3 transcriptional activity in human MGC-803 cells assessed as downregulation of Bcl-xL protein expression at 3 to 5 uM incubated for 24 hrs by Western blot analysis; type: cell-based; conditions: dose 3-5 µM
[21] = Antiproliferative activity against […] H9c2 cells assessed as reduction in cell viability incubated for 72 hrs by CCK-8 assay; type: toxicity, cell-based; conditions: rat
AGS [22] = experiment: Antiproliferative activity against human AGS cells assessed as reduction in cell viability at 1 to 3 uM incubated for 72 hrs by Edu incorporation assay; type: functional, cell-based; conditions: dose 1-3 µM
MGC-803 [23] = experiment: Antiproliferative activity against human MGC-803 cells assessed as reduction in cell viability at 3 to 5 uM incubated for 72 hrs by Edu incorporation assay; type: functional, cell-based; conditions: dose 3-5 µM
AGS [24] = experiment: Inhibition of colony formation in human AGS cells at 0.5 uM incubated for 10 to 15 days by crystal violet staining based assay; type: functional, cell-based; conditions: time 10-15 day
AGS [25] = experiment: Induction of apoptosis in human AGS cells at 1 uM incubated for 72 hrs by V-FITC/PI staining based flow cytometry assay; type: functional
AGS [26] = experiment: Induction of apoptosis in human AGS cells at 3 uM incubated for 72 hrs by V-FITC/PI staining based flow cytometry assay; type: functional
MGC-803 [27] = experiment: Induction of apoptosis in human MGC-803 cells at 5 uM incubated for 72 hrs by V-FITC/PI staining based flow cytometry assay; type: functional

- pIC50 (AGS [2]): 5.81
- pIC50 (MGC-803 [3]): 5.33
- half-life [4]: 1.25 h
- Cmax [5]: 1500 ng/mL
- AUC(0-t) at 24 h (in vivo [6]): 485 ng·h/mL
- AUC(0-inf) at 24 h (in vivo [7]): 490 ng·h/mL
- clearance [8]: 176 mL/min/kg
- Vd [9]: 18.7 L/kg
- Ka [10]: 1.25 10^3/M/s
- pKd [11]: 5.30
- Activity [12]: Active
- inhibition [13]: Dde
- inhibition [14]: Dde
- inhibition [15]: Dde
- inhibition [16]: Active
- inhibition [17]: Active
- inhibition [18]: Active
- inhibition [19]: Active
- inhibition [20]: Active
SMILES: CN(CC(=O)N(Cc1ccc(C2CCCCC2)cc1)c1ccc(B(O)O)cc1)S(=O)(=O)c1c(F)c(F)c(F)c(F)c1F
- inhibition (MGC-803 [1]): Active
- IC50 at 72 h [21]: 9.05 µM
- Activity (AGS [22]): Active
- Activity (MGC-803 [23]): Active
- inhibition (AGS [24]): Active
- Activity (AGS [25]): 13%
- Activity (AGS [26]): 26.7%
- Activity (MGC-803 [27]): 11.2%
